The values that follow come from patent publication US5977144A (priority 1997, dated 1999).

Assay [1] has as its target alpha7 receptor (high affinity alpha-bungarotoxin binding, rat brain membranes) (Rattus norvegicus, UniProt Q05941). Briefly: biochemical.
Assay [2] deals with T1, rat alpha7 receptor (Rattus norvegicus, UniProt Q05941). Briefly: cell-based. On the procedure:
FIG. 13A. Effects of chronic injections of DMXB or nicotine on high affinity [^3 H]ACh or [^125 I]α-bungarotoxin (BTX) binding in rat neocortices. Adult male rats were injected with saline vehicle, 1 mg/kg DMXB or 0.2 mg/kg nicotine (NIC) (IP) daily for 2 weeks. At that time, neocortices were removed and assayed for high affinity [^3 H]ACh or [^125 I]α-bungarotoxin binding as described in the text. […] Responses of rat α7 ACHR to 3-CA, 2-MeOCA and 4-MeOCA. Concentration-response relationships for the peak agonist activated currents of oocytes injected with RNA coding for the rat α7 subunit. All responses were initially measured relative to the individual oocyte-response to 500 μM ACh, applied 5 min prior to drug-application. Responses were normalized relative to the maximum response obtainable with ACh so that a response of 1 represents full efficacy. The ratio of 500 μM ACh control response to ACh maximum was taken from Papke et al., 1997.
(§1) Oocytes were prepared and recordings made as described previously (de Fiebre, et al., 1995). Frogs were anesthetized by submersion in 0.1% (3)-aminobenzoic acid ethyl ester and several lobes of the ovary surgically removed through a small incision in the abdomen wall. Oocytes were freed from the follicle cells by treatment with collagenase (in calcium-free Barth's solution: 88 mM NaCl, 1 mM KCl, 15 mM Hepes pH 7.6, 0.33 mM MgSO4, 0.1 mg/ml gentamicin sulfate) for 2 hr at room temperature and Stage 5 oocytes were isolated. Oocytes were rinsed and stored at 18° C. in Barth's saline (88 mM NaCl, 1 mM KCl, 15 mM Hepes pH 7.6, 0.3 mM Ca(NO3)2, 0.41 mM CaCl2, 0.82 mM MgSO4, 0.1 mg/ml gentamicin sulfate) before and after microinjection with RNA. Microinjection was conducted with a Drummond Scientific "Nanoject Variable" automatic injector. Oocytes were injected with a 50 nl solution of specified rat nicotinic subunit mRNA species (2-10 mg/ml; derived from the cDNA containing HIP 306 plasmid kindly provided by Dr. Jim Boulter, Salk Institute) and incubated 2-7 days at 18° C. before electrophysiological recording. electrophysiological recordings, oocytes were perfused in a Warner Instruments RC-8 recording chamber with a perfusion solution containing 115 mM NaCl, 2.5 mM KCl, 10 mM Hepes pH 7.2, 1.8 mM CaCl2 and 1 μM atropine to block muscarinic responses. Perfusion was continuous at a rate of 10 ml/min. Drags were diluted in perfusion solution and applied using a solenoid valve to switch from perfusion to drug solutions. Current responses to drug administration were studied under two electrode voltage clamp at a holding potential of -70 mV using a Dagan Corp. TEV-200 voltage clamp connected to a 386-SX IBM computer using a TL-1 DMA interface (Axon Instruments). Micropipettes were filled with 3 M KCl and had resistances of 0.5-2 MOhms. Drug responses are analyzed with PClamp software (Axon Instruments). Oocytes with resting potentials of less than -30 mV were rejected.

The target of assay [3] is T2, rat alpha4beta2 receptor (Rattus norvegicus, UniProt P09483+P12390). Briefly: Activation of alpha4beta2 receptors expressed in Xenopus oocytes. Format: cell-based. On the procedure: FIG. 14A. Responses of α4β2 ACHR to 3-CA, 2-MeOCA or 4-MeOCA. Concentration-response relationships for the peak agonist activated currents of oocytes injected with RNA coding for rat α4β2 subunits. Responses are first expressed relative to the response to 10 μM ACh, applied 5 min before drug-application, then normalized to the maximum response obtainable with ACh so that a response of 1 represents full efficacy. The ratio between 10 μM ACh and maximum ACh response was determined in separate experiments.
T2 sequence (P09483 31-630): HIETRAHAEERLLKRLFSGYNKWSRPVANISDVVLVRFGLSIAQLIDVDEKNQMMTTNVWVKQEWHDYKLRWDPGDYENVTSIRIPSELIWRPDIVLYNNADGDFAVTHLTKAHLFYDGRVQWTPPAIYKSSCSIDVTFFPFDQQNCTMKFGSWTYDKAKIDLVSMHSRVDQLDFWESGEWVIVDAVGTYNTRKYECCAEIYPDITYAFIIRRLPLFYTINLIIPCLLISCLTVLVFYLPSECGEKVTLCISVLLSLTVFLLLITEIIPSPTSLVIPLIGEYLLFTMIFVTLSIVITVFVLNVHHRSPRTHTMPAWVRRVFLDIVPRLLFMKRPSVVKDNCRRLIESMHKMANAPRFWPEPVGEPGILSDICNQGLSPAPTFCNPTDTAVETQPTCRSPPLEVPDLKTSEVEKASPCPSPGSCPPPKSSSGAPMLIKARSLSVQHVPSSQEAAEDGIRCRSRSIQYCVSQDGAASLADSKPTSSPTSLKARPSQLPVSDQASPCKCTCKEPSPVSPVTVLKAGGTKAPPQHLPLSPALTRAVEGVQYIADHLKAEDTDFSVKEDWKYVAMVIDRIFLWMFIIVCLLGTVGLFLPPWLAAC
T2 sequence (P12390 25-500): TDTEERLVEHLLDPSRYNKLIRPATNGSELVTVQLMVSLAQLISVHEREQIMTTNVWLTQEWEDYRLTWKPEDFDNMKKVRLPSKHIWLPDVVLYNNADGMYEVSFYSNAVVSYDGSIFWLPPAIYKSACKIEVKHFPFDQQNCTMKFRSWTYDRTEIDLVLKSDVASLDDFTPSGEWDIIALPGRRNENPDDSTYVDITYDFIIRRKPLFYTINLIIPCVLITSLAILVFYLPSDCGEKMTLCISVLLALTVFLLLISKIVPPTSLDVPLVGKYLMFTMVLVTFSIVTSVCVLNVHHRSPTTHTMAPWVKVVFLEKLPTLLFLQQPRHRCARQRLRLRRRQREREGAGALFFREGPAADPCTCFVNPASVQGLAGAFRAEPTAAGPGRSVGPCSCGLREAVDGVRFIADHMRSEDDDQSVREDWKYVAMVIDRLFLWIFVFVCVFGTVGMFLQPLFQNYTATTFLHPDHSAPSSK
as §1

Assay [4] has as its target T1, rat alpha7 receptor. The assay is described as follows: cell-based. More on the design: Oocytes Antagonist: unit not given here. The following applies: for Oocytes Antagonist: Table 4. The method, then:
FIG. 13B. Effects of chronic injections of DMXB or nicotine on high affinity [^3 H]ACh or [^125 I]α-bungarotoxin (BTX) binding in rat neocortices. Adult male rats were injected with saline vehicle, 1 mg/kg DMXB or 0.2 mg/kg nicotine (NIC) (IP) daily for 2 weeks. At that time, neocortices were removed and assayed for high affinity [^3 H]ACh or [^125 I]α-bungarotoxin binding as described in the text. […] Responses of rat α7 AChR to 3-CA, 2-MeOCA and 4-MeOCA. […] All responses are expressed relative to the oocyte-response to 500 μM ACh applied 5 min prior to the experimental agonist application.
as §1
Antagonist properties subsequent to agonist activity were measured as a decrease in responsiveness to ACh applied 5 min after compound-application, normalized to ACh application instead of the anabaseine-derivative (FIG. 13A AND FIG. 13B).

Assay [5] concerns the target T2, rat alpha4beta2 receptor. The assay is described as follows: Activation of alpha4beta2 receptors expressed in Xenopus oocytes. The class given is cell-based. The conditions noted are these: read-out: alpha4beta2 activation: % response observed with 10 μM acetylcholine.
The subject of another assay is NMDA receptor. Briefly: High affinity [3H]MK801 binding to rat brain membranes. The following applies: concentrations up to 30 μM.
Where [6] appears, read: Table 4, read-out: Receptor Binding α7.
Where [7] appears, read: Table 4, read-out: Oocytes Agonist α7.
[8] abbreviates: Table 4, read-out: Oocytes Agonist α4.

Where two headings read alike, the source gives them in different places.

alpha7 receptor (high affinity alpha-bungarotoxin binding, rat brain membranes), sequence (Q05941 23-502): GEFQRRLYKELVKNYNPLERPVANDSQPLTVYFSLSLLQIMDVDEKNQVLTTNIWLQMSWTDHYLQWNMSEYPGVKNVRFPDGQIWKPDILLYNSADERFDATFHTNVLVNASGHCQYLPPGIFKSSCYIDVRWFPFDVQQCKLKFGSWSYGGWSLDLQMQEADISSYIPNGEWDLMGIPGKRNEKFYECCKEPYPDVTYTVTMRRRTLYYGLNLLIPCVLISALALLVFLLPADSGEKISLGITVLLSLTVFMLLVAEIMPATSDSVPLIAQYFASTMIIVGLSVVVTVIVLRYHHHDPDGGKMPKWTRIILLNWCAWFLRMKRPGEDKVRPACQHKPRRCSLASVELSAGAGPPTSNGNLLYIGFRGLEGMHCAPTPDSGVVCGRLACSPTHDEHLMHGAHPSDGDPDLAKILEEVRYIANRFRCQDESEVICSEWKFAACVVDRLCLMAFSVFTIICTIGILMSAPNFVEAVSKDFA
T1 sequence (Q05941 23-502): as above

For `COc1ccccc1/C=C/C=C1\CCCN=C1c1cccnc1` [2-MeOCA, E,E-3-(2-Methoxycinnamylidene)anabaseine], the inhibition at 1 µM in assay [1] (1 μM (Table 2), read-out: alpha7 binding: % inhibition of alphabungarotoxin binding) is 94.9%; in assay [1] (setting [6]), 94.9%. The IC50 (as a rule, the point on the concentration scale where inhibition reaches its midpoint) in assay [1] (rat brain membranes, read-out: IC50, [125I]α-bungarotoxin binding) came to 8 nM; on rat alpha7 receptor [4] (ACh applied 5 min after compound, read-out: IC50, antagonism subsequent to agonist activity), 2300 ± 700 nM. In addition, at rat alpha7 receptor [2], the “selectivity α7 over α4β2 (in words)” value was “selectively activate α7 receptors over α4β2”. The Emax on rat alpha7 receptor [2] (setting [7]) is 96%; at rat alpha7 receptor [2] (read-out: alpha7 activation: % response observed with 500 μM acetylcholine) it was 96%; at rat alpha4beta2 receptor [3] (setting [8]), 2.2%; on rat alpha4beta2 receptor [5] it was below 3%. In addition, the “α7 receptor activation (in words)” value at rat alpha7 receptor [2] (oocyte expression system) is “fully efficaciously”. In addition, the EC50 (as a rule, the concentration at which the effect is half-maximal) at rat alpha7 receptor [2] (oocytes, read-out: α7 EC50) is 6200 ± 2200 nM. The “inhibition of α7 receptors, estimated” value at rat alpha7 receptor [4] (10 μM, estimated from oocyte results) is “over 90%”. At rat alpha7 receptor [4] (10 μM, ACh application 5 min later, read-out: long term inhibition of α7 receptors), the inhibition at 10 µM amounted to 90%. Also, the “Oocytes Antagonist” value on rat alpha7 receptor [4] is “.08”.

Take `COc1ccc(/C=C2\CCCN=C2c2cccnc2)c(OC)c1` [DMXB, 3-(2,4-Dimethoxybenzylidene) anabaseine]: the inhibition at 1 µM in assay [1] (setting [6]) turned out to be 52%; in assay [1] (concentration of 1 μM (Table 1), read-out: alpha7 binding: % Inhibition of high affinity alphabungarotoxin binding (1 nM)) it was 52%. The Emax at rat alpha7 receptor [2] (setting [7]) is 20%; at rat alpha7 receptor [2] (read-out: alpha7 activation: response, normalized to 500 μM acetylcholine (maximum response)) it was 20%; at rat alpha4beta2 receptor [3] (setting [8]), below 1%; at rat alpha4beta2 receptor [3] (read-out: alpha4beta2 activation: response compared to maximal acetylcholine), below 1%. For the same molecule, the “Oocytes Antagonist” value at rat alpha7 receptor [4] is “.20”. Also, in the assay with NMDA receptor, the “interference with high affinity [3H]MK801 binding (in words)” value is listed as “did not interfere”.
